This note sets out measurements from the NIST ThermoML archive (doi:10.1016/j.jct.2018.06.014).

The conditions of series [1]: for Glass transition temperature: DSC; for Normal melting temperature: Crystal 1, DTA.
The nature of series [2]: Molar enthalpy of transition or fusion. Conditions: Crystal 1; DSC.

± gives the expanded uncertainty stated by the source.

`CCCC[N+]1(C)CCCCC1.O=S(=O)([N-]S(=O)(=O)C(F)(F)F)C(F)(F)F`: in series [1], the Glass transition temperature is -72.00 ± 2 °C.

With `COP(=O)([O-])OC.Cn1cc[n+](C)c1` [1,3-dimethylimidazolium dimethylphosphate], the Glass transition temperature in series [1] is -63.00 ± 2 °C.

Consider `CCCC[N+]1(C)CCCCC1.O=S(=O)([O-])C(F)(F)F` [1-butyl-1-methylpiperidinium trifluoromethanesulfonate], for which the Normal melting temperature in series [1] came to 36.00 ± 2 °C. Further, in series [2], the “Molar enthalpy of transition or fusion” value stood at 5.5 ± 0.478 kcal/mol.

Take `CCCCn1cc[n+](C)c1.O=S(=O)([O-])C(F)(F)F` [1-butyl-3-methylimidazolium trifluoromethanesulfonate]: the Normal melting temperature in series [1] was determined as 18.00 ± 2 °C. Besides, the “Molar enthalpy of transition or fusion” value in series [2] turned out to be 6.21 ± 0.717 kcal/mol.

`CCN(C)CC.CS(=O)(=O)O` [diethylmethylammonium methanesulfonate]: the Normal melting temperature in series [1] was 39.00 ± 2 °C. The “Molar enthalpy of transition or fusion” value in series [2] is 3.35 ± 0.478 kcal/mol.

For the molecule `CC[NH+](C)CC.O=S(=O)([O-])C(F)(F)F` [diethylmethylammonium trifluoromethanesulfonate], the Normal melting temperature in series [1] is -5.00 ± 2 °C. In addition, the “Molar enthalpy of transition or fusion” value in series [2] was 4.06 ± 0.478 kcal/mol.
